In patent US20260035382A1, “COMPOUNDS AS SUMO ACTIVATING ENZYME INHIBITORS” (WIGEN BIOMEDICINE TECHNOLOGY (SHANGHAI) CO., LTD., priority 2022, published 2026):
Read-outs that look alike come from different tables or passages of the source.

Biological target: SAE (Homo sapiens (Human), UniProt Q9UBT2)
Experiment: In vitro inhibitory activity assay against SAE (SUMO-2/3 immunofluorescence in HCT116 cells)
Assay type: cell-based
Details: 6 h incubation, read-out: SUMO IF IC50
Experimental: HCT116 cells were seeded into a 96-well black transparent bottom plate at about 20000/well with 90 μL per well. The cells were incubated at 37° C. overnight for 24 h. The test compounds were 10-fold diluted to give a final concentration, and 10 μL of the diluted compounds was added to each well of the cell culture plate. The mixture was incubated at 37° C. for 6 h. The cells were then washed gently, the culture medium was discarded, and the cells were washed once with 200 μL of 0.1% o PBST. 50 μL of 4% PFA was added to each well, and the cells were immobilized at room temperature for 20 min, and then washed with PBS 2-3 times. 50 μL of 0.2% o Triton X-100 was added to each well, and the cells were left to stand at room temperature for 15 min and washed with 0.1% PBST 3 times. 100 uL of 3% BSA (0.6 g BSA+20 mL PBS) was added to each well, and the mixture was blocked at 37° C. for 30 min. After the blocking was completed, the liquid was removed and a primary antibody (SUMO-2/3 (181H8) Rabbit mAb, 1:400 dilution) was prepared with […]. 30 μL of the diluted primary antibody was added to each well, and the mixture was incubated at 4° C. overnight. The cells were washed 3 times with 200 μL of 0.1% o PBST. A FITC secondary antibody (Fluorescein (FITC)-conjugated Affinipure Goat Anti-Rabbit IgG (H+L), 1:300 dilution) was further prepared with 1% o BSA, and 40 μL of the diluted secondary antibody was added to each well. The mixture was incubated at room temperature in the dark for 2 h, and then the cells were washed 4 times with 0.1% PBST. The fluorescence signal of the sample was detected and compared to the DMSO group, and the inhibition rate and IC50 were calculated.

Sequence of SAE (Q9UBT2 whole entry): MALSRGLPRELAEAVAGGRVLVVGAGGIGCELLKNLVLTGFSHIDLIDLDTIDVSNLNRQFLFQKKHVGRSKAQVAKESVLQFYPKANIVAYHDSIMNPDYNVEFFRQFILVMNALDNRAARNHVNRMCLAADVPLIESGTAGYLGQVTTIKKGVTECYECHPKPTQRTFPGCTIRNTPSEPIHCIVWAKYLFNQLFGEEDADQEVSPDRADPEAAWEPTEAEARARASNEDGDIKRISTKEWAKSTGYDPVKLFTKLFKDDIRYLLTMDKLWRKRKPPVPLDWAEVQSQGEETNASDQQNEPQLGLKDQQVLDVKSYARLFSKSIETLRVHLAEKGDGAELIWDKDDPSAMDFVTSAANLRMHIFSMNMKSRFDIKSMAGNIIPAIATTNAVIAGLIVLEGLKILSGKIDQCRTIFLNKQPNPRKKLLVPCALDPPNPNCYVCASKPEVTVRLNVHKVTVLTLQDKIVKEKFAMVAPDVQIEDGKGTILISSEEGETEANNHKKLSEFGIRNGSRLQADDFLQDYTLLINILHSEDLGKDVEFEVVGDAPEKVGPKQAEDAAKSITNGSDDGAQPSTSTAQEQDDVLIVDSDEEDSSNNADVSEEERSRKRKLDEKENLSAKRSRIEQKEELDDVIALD
Sequence of SAE (Q9UBE0 whole entry partner): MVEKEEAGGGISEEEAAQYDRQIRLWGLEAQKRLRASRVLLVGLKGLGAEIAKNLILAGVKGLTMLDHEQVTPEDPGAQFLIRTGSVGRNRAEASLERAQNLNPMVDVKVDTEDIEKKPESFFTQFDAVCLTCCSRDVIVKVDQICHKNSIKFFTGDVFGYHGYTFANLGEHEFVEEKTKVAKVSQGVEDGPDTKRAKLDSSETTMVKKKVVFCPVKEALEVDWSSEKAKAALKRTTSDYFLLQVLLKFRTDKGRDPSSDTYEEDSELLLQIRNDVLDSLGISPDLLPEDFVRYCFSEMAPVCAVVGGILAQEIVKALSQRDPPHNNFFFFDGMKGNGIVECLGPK

Row | Structure (SMILES) | IC50 (class symbols) [nM] | IC50 (numeric values) [nM]
1 | COc1cc2c(cc1Cl)[C@@]1(CCc3sc(C(=O)c4cncnc4N[C@@H]4C[C@H](COS(N)(=O)=O)[C@@H](O)C4)cc31)NCC2 [Compound 232] | 50 to 200 | –
2 | NS(=O)(=O)OC[C@H]1C[C@@H](Nc2ncncc2C(=O)c2cc3c(s2)OCC32NCCc3ccccc32)C[C@@H]1O (stereo partly drawn) [Compound 55] | > 200 | –
3 | NS(=O)(=O)OC[C@H]1C[C@@H](Nc2ncncc2C(=O)c2cc3c(s2)CCC32NCCc3ccc(F)cc32)C[C@@H]1O (stereo partly drawn) [Compound 49] | 50 to 200 | –
4 | NS(=O)(=O)OC[C@H]1C[C@@H](Nc2ncncc2C(=O)c2cc3c(s2)COC[C@@]32NCCc3cc(Cl)c(Cl)cc32)C[C@@H]1O [Compound 98] | > 200 | –
5 | CC1=C[C@@]2(NCCc3ccc(Cl)cc32)c2cc(C(=O)c3cncnc3N[C@@H]3C[C@H](COS(N)(=O)=O)[C@@H](O)C3)sc21 [Compound 158] | > 200 | –
6 | NS(=O)(=O)OC[C@H]1C[C@@H](Nc2ncncc2C(=O)c2cc3c(s2)C=C[C@@]32NCCc3ccc(Cl)cc32)C[C@@H]1O [Compound 175] | – | > 1000
7 | NS(=O)(=O)OC[C@H]1C[C@@H](Nc2ncncc2C(=O)c2cc3c(s2)COC[C@@]32NCCc3ccccc32)C[C@@H]1O [Compound 14] | > 200 | –
8 | NS(=O)(=O)OC[C@H]1C[C@@H](Nc2ncncc2C(=O)c2cc3c(s2)C=C[C@]32OCCc3ccc(F)cc32)C[C@@H]1O [Compound 294] | ≤ 50 | –
9 | NS(=O)(=O)OC[C@H]1C[C@@H](Nc2ncncc2C(=O)c2cc3c(s2)OCC32NCCc3ccc(F)cc32)C[C@@H]1O (stereo partly drawn) [Compound 58] | > 200 | –
10 | NS(=O)(=O)OC[C@H]1C[C@@H](Nc2ncncc2C(=O)c2cc3c(s2)OCCC32NCCc3ccc(Cl)cc32)C[C@@H]1O (stereo partly drawn) [Compound 38] | 50 to 200 | –
11 | NS(=O)(=O)OC[C@H]1C[C@@H](Nc2ncncc2C(=O)c2cc3c(s2)C=C[C@@]32OCCc3ccccc32)C[C@@H]1O [Compound 290] | > 200 | –
12 | NS(=O)(=O)OC[C@H]1C[C@@H](Nc2ncncc2C(=O)c2cc3c(s2)C(=O)C[C@@]32NCCc3ccc(Cl)cc32)C[C@@H]1O [Compound 167] | > 200 | –
13 | CCN1Cc2sc(C(=O)c3cncnc3N[C@@H]3C[C@H](COS(N)(=O)=O)[C@@H](O)C3)cc2C2(C1)OCCc1ccc(F)cc12 (stereo partly drawn) [Compound 262] | 50 to 200 | –
14 | NS(=O)(=O)OC[C@H]1C[C@@H](Nc2ncncc2C(=O)c2cc3c(s2)CCC[C@]32NCCc3cnc(Cl)cc32)C[C@@H]1O [Compound 135] | ≤ 50 | –
15 | NS(=O)(=O)OC[C@H]1C[C@@H](Nc2ncncc2C(=O)c2cc3c(s2)CN(C2CC2)C[C@]32OCCc3ccc(F)cc32)C[C@@H]1O [Compound 276] | ≤ 50 | –
16 | NS(=O)(=O)OC[C@H]1C[C@@H](Nc2ncncc2C(=O)c2cc3c(s2)CSCC32NCCc3ncc(Cl)cc32)C[C@@H]1O (stereo partly drawn) [Compound 148] | 50 to 200 | –
17 | NS(=O)(=O)OC[C@H]1C[C@@H](Nc2ncncc2C(=O)c2cc3c(s2)COC[C@]32NCCc3ccccc32)C[C@@H]1O [Compound 15] | 50 to 200 | –
18 | NS(=O)(=O)OC[C@H]1C[C@@H](Nc2ncncc2C(=O)c2cc3c(s2)CCC32NCCc3cc(F)c(Cl)cc32)C[C@@H]1O (stereo partly drawn) [Compound 69] | ≤ 50 | –
19 | CC(C)N1Cc2sc(C(=O)c3cncnc3N[C@@H]3C[C@H](COS(N)(=O)=O)[C@@H](O)C3)cc2[C@@]2(C1)OCCc1ccc(F)cc12 [Compound 269] | > 200 | –
20 | COc1cc2c(cc1Cl)C1(CCCc3sc(C(=O)c4cncnc4N[C@@H]4C[C@H](COS(N)(=O)=O)[C@@H](O)C4)cc31)NCC2 (stereo partly drawn) [Compound 31] | 50 to 200 | –
21 | NS(=O)(=O)OC[C@H]1C[C@@H](Nc2ncncc2C(=O)c2cc3c(s2)CN(C2CC2)C[C@]32NCCc3ccc(Cl)cc32)C[C@@H]1O [Compound 117] | – | 19.1
22 | NS(=O)(=O)OC[C@H]1C[C@@H](Nc2ncncc2C(=O)c2cc3c(s2)CCCC32OCCc3ccc(Cl)cc32)C[C@@H]1O (stereo partly drawn) [Compound 42] | ≤ 50 | –
23 | NS(=O)(=O)OC[C@H]1C[C@@H](Nc2ncncc2C(=O)c2cc3c(s2)CCC[C@]32NCCc3cc(Cl)c(F)cc32)C[C@@H]1O [Compound 213] | ≤ 50 | –
24 | NS(=O)(=O)OC[C@H]1C[C@@H](Nc2ncncc2C(=O)c2cc3c(s2)COCC32NCCc3cc(F)c(Cl)cc32)C[C@@H]1O (stereo partly drawn) [Compound 106] | 50 to 200 | –
25 | N#Cc1ccc2c(c1)C1(C=Cc3sc(C(=O)c4cncnc4N[C@@H]4C[C@H](COS(N)(=O)=O)[C@@H](O)C4)cc31)OCC2 (stereo partly drawn) [Compound 298] | 50 to 200 | –
26 | NS(=O)(=O)OC[C@H]1C[C@@H](Nc2ncncc2C(=O)c2cc3c(s2)CCCC32OCCc3ccc(F)cc32)C[C@@H]1O (stereo partly drawn) [Compound 247] | 50 to 200 | –

Row | Structure (SMILES) | IC50 (class symbols) [nM] | IC50 (numeric values) [nM]
27 | CN1Cc2sc(C(=O)c3cncnc3N[C@@H]3C[C@H](COS(N)(=O)=O)[C@@H](O)C3)cc2C2(C1)OCCc1ccc(Cl)cc12 (stereo partly drawn) [Compound 259] | ≤ 50 | –
28 | CC(C)N1Cc2sc(C(=O)c3cncnc3N[C@@H]3C[C@H](COS(N)(=O)=O)[C@@H](O)C3)cc2[C@]2(C1)OCCc1ccc(F)cc12 [Compound 270] | ≤ 50 | –
29 | NS(=O)(=O)OC[C@H]1C[C@@H](Nc2ncncc2C(=O)c2cc3c(s2)OC[C@@]32NCCc3ccccc32)C[C@@H]1O [Compound 56] | > 200 | –
30 | N#Cc1ccc2c(c1)[C@@]1(CCc3sc(C(=O)c4cncnc4N[C@@H]4C[C@H](COS(N)(=O)=O)[C@@H](O)C4)cc31)NCC2 [Compound 54] | 50 to 200 | –
31 | N#Cc1ccc2c(c1)[C@@]1(CCc3sc(C(=O)c4cncnc4N[C@@H]4C[C@H](COS(N)(=O)=O)[C@@H](O)C4)cc31)OCC2 [Compound 288] | ≤ 50 | –
32 | NS(=O)(=O)OC[C@H]1C[C@@H](Nc2ncncc2C(=O)c2cc3c(s2)CCC32NCCc3ccc(C(F)(F)F)cc32)C[C@@H]1O (stereo partly drawn) [Compound 67] | 50 to 200 | –
33 | N#Cc1ccc2c(c1)C1(CCc3sc(C(=O)c4cncnc4N[C@@H]4C[C@H](COS(N)(=O)=O)[C@@H](O)C4)cc31)NCC2 (stereo partly drawn) [Compound 52] | 50 to 200 | –
34 | NS(=O)(=O)OC[C@H]1C[C@@H](Nc2ncncc2C(=O)c2cc3c(s2)CC[C@]32OCCc3ccc(Cl)cc32)C[C@@H]1O [Compound 243] | ≤ 50 | –
35 | N#Cc1ccc2c(c1)C1(CCCc3sc(C(=O)c4cncnc4N[C@@H]4C[C@H](COS(N)(=O)=O)[C@@H](O)C4)cc31)NCC2 (stereo partly drawn) [Compound 10] | 50 to 200 | –
36 | CN1Cc2sc(C(=O)c3cncnc3N[C@@H]3C[C@H](COS(N)(=O)=O)[C@@H](O)C3)cc2[C@]2(C1)OCCc1ccccc12 [Compound 255] | 50 to 200 | –
37 | NS(=O)(=O)OC[C@H]1C[C@@H](Nc2ncncc2C(=O)c2cc3c(s2)CN(C2CC2)C[C@@]32OCCc3ccc(Cl)cc32)C[C@@H]1O [Compound 278] | > 200 | –
38 | NS(=O)(=O)OC[C@H]1C[C@@H](Nc2ncncc2C(=O)c2cc3c(s2)COC[C@@]32NCCc3c(F)cc(Cl)cc32)C[C@@H]1O [Compound 110] | > 200 | –
39 | NS(=O)(=O)OC[C@H]1C[C@@H](Nc2ncncc2C(=O)c2cc3c(s2)CCC[C@]32NCCc3cc(F)c(F)cc32)C[C@@H]1O [Compound 206] | ≤ 50 | –
40 | [2H]C1([2H])Cc2ccc(Cl)cc2[C@@]2(CCCc3sc(C(=O)c4cncnc4N[C@@H]4C[C@H](COS(N)(=O)=O)[C@@H](O)C4)cc32)N1 [Compound 198] | – | 28.8
41 | N#Cc1cc2c(cc1Cl)[C@@]1(CCc3sc(C(=O)c4cncnc4N[C@@H]4C[C@H](COS(N)(=O)=O)[C@@H](O)C4)cc31)NCC2 [Compound 231] | ≤ 50 | –
42 | CCN1Cc2sc(C(=O)c3cncnc3N[C@@H]3C[C@H](COS(N)(=O)=O)[C@@H](O)C3)cc2[C@@]2(C1)OCCc1ccc(F)cc12 [Compound 263] | > 200 | –
43 | CN1Cc2sc(C(=O)c3cncnc3N[C@@H]3C[C@H](COS(N)(=O)=O)[C@@H](O)C3)cc2[C@]2(C1)NCCc1ccc(Cl)cc12 [Compound 114] | – | 22.8
44 | COc1cc2c(cc1Cl)[C@@]1(CCCc3sc(C(=O)c4cncnc4N[C@@H]4C[C@H](COS(N)(=O)=O)[C@@H](O)C4)cc31)NCC2 [Compound 211] | 50 to 200 | –
45 | COc1ccc2c(c1)C1(CCc3sc(C(=O)c4cncnc4N[C@@H]4C[C@H](COS(N)(=O)=O)[C@@H](O)C4)cc31)NCC2 (stereo partly drawn) [Compound 66] | > 200 | –
46 | NS(=O)(=O)OC[C@H]1C[C@@H](Nc2ncncc2C(=O)c2cc3c(s2)CC[C@]32OCCc3ccccc32)C[C@@H]1O [Compound 282] | 50 to 200 | –
47 | NS(=O)(=O)OC[C@H]1C[C@@H](Nc2ncncc2C(=O)c2cc3c(s2)C=CC32OCCc3ccc(F)cc32)C[C@@H]1O (stereo partly drawn) [Compound 292] | 50 to 200 | –
48 | NS(=O)(=O)OC[C@H]1C[C@@H](Nc2ncncc2C(=O)c2cc3c(s2)CSC[C@]32NCCc3cnc(Cl)cc32)C[C@@H]1O [Compound 144] | ≤ 50 | –
49 | NS(=O)(=O)OC[C@H]1C[C@@H](Nc2ncncc2C(=O)c2cc3c(s2)C=CC32NCCc3ccc(Cl)cc32)C[C@@H]1O (stereo partly drawn) [Compound 78] | ≤ 50 | –
50 | NS(=O)(=O)OC[C@H]1C[C@@H](Nc2ncncc2C(=O)c2cc3c(s2)CSCC32NCCc3cnc(Cl)cc32)C[C@@H]1O (stereo partly drawn) [Compound 142] | 50 to 200 | –
51 | NS(=O)(=O)OC[C@H]1C[C@@H](Nc2ncncc2C(=O)c2nc3c(s2)CCCC32NCCc3ccc(Cl)cc32)C[C@@H]1O (stereo partly drawn) [Compound 121] | > 200 | –
